# In patent US20080300298A1, “Honokiol Derivates For the Treatment of Proliferative Disorders” (priority 2005, published 2008):
# Tests used:
# PARP in KBM-5 cells = assay: PARP cleavage assay; format: cell-based, human; conditions: KBM-5, TNF 1 nM with honokiol (25 mM printed)
# Description: (D) depicts that honokiol enhances TNF-induced cell death.
# PARP cleavage assay. For detection of cleavage products of PARP, whole-cell extracts were prepared by subjecting honokiol-treated cells to lysis in lysis buffer (20 mM Tris, pH 7.4; 250 mM NaCl; 2 mM EDTA, pH 8.0; 0.1% TritonX-100; 0.01 mg/ml aprotinin; 0.005 mg/ml leupeptin; 0.4 mM PMSF; and 4 mM NaVO4). Lysates were spun at 14000 rpm for 10 min to remove insoluble material, resolved by 10% SDS PAGE, and probed with PARP antibodies.
# By using caspase-activated PARP cleavage, it was shown that the enhanced cytotoxicity was due to apoptosis. TNF-induced PARP cleavage was enhanced in the honokiol-treated cells (FIG. 26C).
# heart AMPKK = assay: direct activation of AMPKK in vitro; format: biochemical
# [1] = system: apoptosis-related proteins in MCF-7 cells; assay: Western blot of apoptosis-related proteins; format: cell-based; conditions: 24 h
# Description: Following treatment, the cells were harvested and stained for PI and annexin V, as described in Example 9. (B) is a bar graph in which the results of three independent experiments (HNK 60 μM, 24 h) are shown. Asterix indicates p<0.05. (C) is a series of photographs of the Western blots in which MCF-7 cells were treated with HNK (20 or 40 μM, 24 h), lysed and analyzed by Western blotting for the expression of apoptosis-related proteins.
# Western blot analysis: Cells were harvested and lysed for total protein extraction in a buffer containing 50 mM Tris-Cl pH 7.4, 150 mM NaCl and 2% NP-40 together with a protease inhibitor cocktail (Comp). […] Immunoactivity was detected with horseradish peroxidase-conjugated secondary antibody and visualized by Enhanced Chemiluminescence (Pierce, Rockford, Ill.). Quantification of the results was performed using AlphaImager 2000 (Alpha Innotech, San Leandro, Calif.).
# HNK induces apoptosis in breast cancer cell lines. […] MCF-7 cells were treated with HNK (60 μM for six or 24 hours) and apoptosis and cell death were assessed using annexin V and PI staining (FIG. 5 A). […] Upregulation of BAX was also noticed, (85% increase at 40 μM compared to control, as analyzed by densitometry) but no significant changes in BCL-2 or BAD levels were observed. […]
# SVR angiosarcoma = assay: in vivo growth of SVR angiosarcoma; conditions: nude mice
# Source text: FIG. 18 depicts the effect of honokiol on in vivo growth of SVR angiosarcoma in nude mice.
# FIG. 18 illustrates the effect of honokiol on in vivo growth of SVR angiosarcoma in nude mice.
# [2] = system: SHSY5Y and SHEP neuroblastoma cells; assay: cancer cell viability, TSA in combination with honokiol; format: cell-based; conditions: 0-1 uM TSA alone or in combination with honokiol
# Source text: In FIG. 43, the effects on cancer cell viability after treatment with trichostatin A (TSA), a histone deacetylase inhibitor, in combination with honokiol were examined.
smiles,measurement,setting,value
"C=CCc1ccc(O)c(-c2ccc(O)c(CC=C)c2)c1 [HNK, Honokiol]",TNF-induced PARP cleavage,PARP in KBM-5 cells,enhanced
same,direct activation of heart AMPKK,heart AMPKK,does not directly activate heart AMPKK in vitro
same,"Upregulation of BAX (densitometry), increase compared to control","[1]; MCF-7, 40 μM",85%
same,PARP and caspase 8 levels,"[1]; MCF-7, 20 or 40 μM",degradation of poly (ADP-ribose) polymerase (PARP) and decreased levels of caspase 8
same,in vivo growth of SVR angiosarcoma,SVR angiosarcoma,effective against tumors in vivo
same,toxicity to the host animal,SVR angiosarcoma,nontoxic to the host animal
same,"percent of viable cells, combination with TSA compared with TSA alone",[2],significant decrease in the percent of viable cells
